Test [1] has as its target T1, SOD1^L42R (Homo sapiens, UniProt P00441, L43R).
T1 construct: His-tag (cleaved yes); made in house; host or cells: E. coli BL21-DE3
The test is described as follows: MST binding assay, site-specific mutant SOD1^L42R. As to conditions: PBS buffer, mutant 25 nM, PB 30.5 nM to 250 μM, 25 °C, SEM n = 3, read-out: binding affinity Kd. How it is done:
To further validate the binding of PB to SOD1, site-directed mutagenesis was performed for the interacting residues at the binding sites of PB. The point mutations generated on the SOD1 protein are K9F, G10P, L42R, and A123F. The MST assay was carried out on these mutants against PB (Fig 5). The dose-response curve with the highest signal-to-noise ratio, high response amplitude, and lowest error rate was selected for measuring the binding affinity (Kd) value. […] Binding at the electrostatic loop is affected majorly by mutating residues at A123 to phenylalanine and L42 to arginine. […] Taken together, the binding affinities of these mutants confirm the ligand bindings at these sites of SOD1 are specific.
Fig 5 MST interaction analysis of fluorescently labeled SOD1 mutants against PB. The binding of PB to fluorescently Cys-labeled SOD1- variants is quantified in PBS buffer. The concentration of PB varied from 30.5 nM to 250 μM, while the respective mutants were kept constant at 25 nM. MST experiments were conducted at 20% LED excitation and medium MST power at 25 °C. […] Error bars indicate the standard error of the mean, SEM (n = 3). […] The ligand PB is printed only in the titles of panels a-d, so the mutant names are used as the substance labels.
(§1) Binding studies were performed for SOD1^WT and the ligands using microscale thermophoresis (MST). […]

Test [2] deals with T2, SOD1^WT (Homo sapiens, UniProt P00441).
T2 construct: The full-length constructs of SOD1-wild type (aa: 1–145); His-tag (cleaved yes); made in house; host or cells: E. coli BL21 DE3
T2 sequence (P00441 whole entry): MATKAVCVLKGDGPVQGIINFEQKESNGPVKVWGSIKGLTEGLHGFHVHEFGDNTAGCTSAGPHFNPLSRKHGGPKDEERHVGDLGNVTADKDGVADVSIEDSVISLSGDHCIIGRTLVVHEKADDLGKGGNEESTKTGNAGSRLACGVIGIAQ
The test is described as follows: Microscale thermophoresis (MST) binding assay, Cys-labeled SOD1^WT. As to conditions: PBS buffer, protein 25 nM, PB 30.5 nM to 250 μM, 25 °C, SEM n = 3, read-out: binding affinity Kd. How it is done: To evaluate the binding efficiency of the ligand PB with SOD1^WT, a quantitative binding assay by microscale thermophoresis (MST) was performed. SOD1^WT was labeled at its cysteine residues to ensure non-interference with lysine-containing binding sites of PB (K9, K122, and K128). The cysteine label targeted free cysteines lying away from the ligand-binding site region. The fluorescently labeled SOD1^WT and 16 different concentrations of PB from 250 μM to 30.5 nM were prepared to evaluate the binding interactions between SOD1^WT and PB, as discussed in the methodology. […] The binding affinity was calculated based on the directional movement of molecules along a temperature gradient and the thermophoretic properties of the protein-ligand molecules.
Fig 4 MST interaction analysis of fluorescently labeled SOD1^WT against PB. The binding of PB to fluorescently Cys-labeled SOD1^WT is quantified in PBS buffer. The concentration of PB varied from 30.5 nM to 250 μM, while the protein SOD1^WT was kept constant at 25 nM. MST experiments were conducted at 20% LED excitation and medium MST power at 25 °C. […] Error bars indicate the standard error of the mean, SEM (n = 3).
as §1
(In general: Microscale thermophoresis detects binding through changes in fluorescence in a small temperature gradient.)

T1 sequence (P00441 whole entry L43R): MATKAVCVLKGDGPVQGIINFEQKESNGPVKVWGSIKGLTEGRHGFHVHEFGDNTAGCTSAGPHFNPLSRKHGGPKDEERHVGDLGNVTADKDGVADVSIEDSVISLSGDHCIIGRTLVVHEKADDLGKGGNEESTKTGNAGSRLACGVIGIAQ

Broadly, the Kd is the equilibrium constant for the complex coming apart. With `CCCC[C@H](C)/C=C(C)/C=C/C(=O)O` [PB, (S, 2E, 4E)-4,6-dimethyldeca-2,4-dienoic acid], the Kd in test [1] stood at 225 ± 4.29 µM; in test [2], 3.7 ± 1.2 µM.
